The values below are quoted from earlier work in patent publication US20240066097A1 (priority 2022, published 2024).

Data set [1] relates to SARS coronaviruses.
In data set [2] the test system is SARS coronaviruses. This is another data set of the same source.
For data set [3] the following is noted: in vivo.

Values after ≈ are worked out from the molar mass of the structure shown.

For orientation: IC50 means the concentration at which inhibition is half-maximal. For `Oc1cc(O)c2c(c1)O[C@@]1(c3ccc(O)c(O)c3)Oc3cc(O)c4c(c3[C@@H]2[C@H]1O)O[C@H](c1ccc(O)c(O)c1)[C@H](O)[C@H]4c1c(O)cc(O)c2c1O[C@H](c1ccc(O)c(O)c1)[C@H](O)C2` [Cinnamtannin B1], in the data set with SARS coronaviruses [1], the “IC50” value is 28.4 µg/mL (≈ 32.8 µM).
`O=C(O[C@@H]1Cc2c(O)cc(O)cc2O[C@@H]1c1cc(O)c(O)c(O)c1)c1cc(O)c(O)c(O)c1` [EGCG, epigallocatechin gallate]: in the data set on SARS coronaviruses [1], the “IC50” value is 0.389 to 7.56 µg/mL.
Turning to `COc1ccc([C@@H]2CC(=O)c3c(O)cc(O)cc3O2)cc1O` [Hesperetin], the “IC50” value with SARS coronaviruses [1] was 2.5 µg/mL (≈ 8.27 µM).
On to `O=c1c(O)c(-c2ccc(O)cc2)oc2cc(O)cc(O)c12` [Kaempferol], for which the “IC50” value in the data set on SARS coronaviruses [1] was 62.50 to 125.00 µg/mL. For the same molecule, the “EC50 level of the flavonol” value in the data set with SARS coronaviruses [2] is 10 µg/mL.
Regarding `O=c1cc(-c2ccc(O)c(O)c2)oc2cc(O)cc(O)c12` [Luteolin], the “IC50” value in the data set with SARS coronaviruses [1] was 5.72 µg/mL (≈ 20 µM).
For the molecule `O=c1c(O)c(-c2cc(O)c(O)c(O)c2)oc2cc(O)cc(O)c12` [Myricetin], the “IC50” value with SARS coronaviruses [1] is 0.86 µg/mL (≈ 2.7 µM).
Regarding `O=c1c(O)c(-c2ccc(O)c(O)c2)oc2cc(O)cc(O)c12` [Quercetin], the “IC50” value in the data set on SARS coronaviruses [1] is 7.19 to 60 µg/mL. Further, the “EC50 level of the flavonol” value in the data set on SARS coronaviruses [2] was 60 µg/mL.
Regarding `[Ca+2]` [calcium], the dietary calcium absorption entry is reported as “up to −50%”.
Take MBL: the half life in data set [3] was 72 to 170 h.

B1: Urtica dioica Agglutinin (UDA) (protein, UniProt P11218 24-372, looked up)
Lectin/endochitinase 1: QRCGSQGGGGTCPALWCCSIWGWCGDSEPYCGRTCENKCWSGERSDHRCGAAVGNPPCGQDRCCSVHGWCGGGNDYCSGSKCQYRCSSSVRGPRVALSGNSTANSIGNVVVTEPLFDQMFSHRKDCPSQGFYSYHSFLVAAESFPAFGTIGDVATRKREVAAFLAHISQATSGERSDVENPHAWGLCHINTTTVTENDFCTSSDWPCAAGKKYSPRGPIQLTHNFNYGLAGQAIGEDLIQNPDLVEKDPIISFKTALWFWMSQHDNKPSCHDIVLNANSAANRIPNKGVIGNIISRAFGHDDFAVRSSSIGFYKRYCDMLGVSYGHDLKYWFDNTPSSEFQRIQMRVAA
The term EC50 denotes the concentration that produces a half-maximal response. On to B1, for which the EC50 in the data set with SARS-CoV-1 is 1.3 µg/mL.
